Values joined by “and” are separate entries in the source; they are usually repeats but may differ in a detail not shown here. Equal values may be shown once.
Test system: spores of Bacillus cereus
Assay type: cell-based

C[C@H](N)C(=O)O [L-alanine]
CFU: 72 and 85
induction of spore germination (control samples A and B): did induce germination

Reference: patent publication US6547971B2 (priority 2000, dated 2003)
